Laboratory results from PubChem BioAssay (NCI).
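How tested: cells in 96-well plates exposed to compound for 48 hours at five concentrations. Abbreviation: GI50, concentration required for 50% inhibition of growth. TGI: total growth inhibition.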

Tests used:
Experiment in all cases: growth of human tumour cells (NCI), 48 h
[1] = system: A498 renal
[2] = system: EKVX NSCLC
[3] = system: MALME-3M melanoma
[4] = system: NCI/ADR-RES ovarian
[5] = system: OVCAR-5 ovarian
[6] = system: RXF 393 renal
[7] = system: SF-295 CNS
[8] = system: SK-MEL-28 melanoma
[9] = system: SW-620 colon
[10] = system: NCI-H226 lung

Row | SMILES | TGI [1] | TGI [2] | TGI [3] | TGI [4] | TGI [5] | TGI [6] | TGI [7] | TGI [8] | TGI [9] | TGI [10] | GI50 [1] | GI50 [2] | GI50 [3] | GI50 [10] | GI50 [4] | GI50 [5] | GI50 [6] | GI50 [7] | GI50 [8] | GI50 [9]
1 | CCc1nc(N)nc(N)c1-c1ccc(Cl)c(Cl)c1 | > 100 µM | > 100 µM | > 100 µM | > 100 µM | > 100 µM | > 100 µM | > 100 µM | > 100 µM | > 100 µM | – | – | – | – | – | – | – | – | – | – | –
2 | COc1ccccc1C1C(C(=O)O)=C(CO)Oc2cc3c(cc21)OCO3 (configuration not stated) | > 100 µM | > 100 µM | > 100 µM | – | – | – | > 100 µM | > 100 µM | > 100 µM | > 100 µM | – | – | – | – | – | – | – | – | – | –
3 | Cc1ccc(S(=O)(=O)Oc2cc(-c3ccccc3)nc3ccccc23)cc1 | 9.62 µM | > 100 µM | 17.9 µM | 11.6 µM | 62 µM | 11.9 µM | 13.1 µM | 68.7 µM | > 47.3 µM | 26.5 µM | – | – | – | – | – | – | – | – | – | –
4 | NC(Cc1cccc([N+](=O)[O-])c1)C(=O)O (configuration not stated) | > 100 µM | > 100 µM | > 100 µM | > 100 µM | > 100 µM | > 100 µM | > 100 µM | > 100 µM | > 100 µM | > 100 µM | – | – | – | – | – | – | – | – | – | –
5 | O=[N+]([O-])c1ccc(C=C2C(Cl)=C(Cl)C(Cl)=C2Cl)cc1 | 26.6 µM | > 100 µM | 9.26 µM | 17.2 µM | > 100 µM | 3.39 µM | 76.6 µM | 74.4 µM | – | 23 µM | 5.13 µM | 3.67 µM | 2.59 µM | 4.31 µM | 3.05 µM | 3.3 µM | 1.81 µM | 3.47 µM | 3.81 µM | –
6 | CC1CC=CC(O)C1 (configuration not stated) | > 100 µM | > 100 µM | > 100 µM | > 100 µM | > 100 µM | > 100 µM | > 100 µM | > 100 µM | > 100 µM | > 100 µM | – | – | – | – | – | – | – | – | – | –
7 | Cc1ccc2c(n1)C(=O)c1[nH]c3ccccc3c1C2=O | 2.76 µM | 4.17 µM | 1.07 µM | 9.29 µM | 4.54 µM | 55.4 µM | 2.05 µM | > 100 µM | > 100 µM | 3.65 µM | 1.38 µM | 1.22 µM | 0.208 µM | 1.36 µM | 2.28 µM | 2.11 µM | 2.72 µM | 0.761 µM | 3.87 µM | 2.97 µM
8 | NCCCNc1nc2ccccc2c2c(=O)c3cc(OC(F)(F)F)ccc3sc12 | – | – | 3.08 µM | 3.41 µM | 3.07 µM | – | – | 3.24 µM | – | – | – | – | 1.57 µM | – | 1.73 µM | 1.64 µM | – | – | 1.8 µM | –
9 | CCC[CH2][Ge]([CH2]CCC)([CH2]CCC)[O]C(=O)CC(=O)c1ccccc1 | – | 16.2 µM | 13 µM | – | 14.9 µM | 3.65 µM | – | 19.1 µM | 12.6 µM | 17.2 µM | – | 0.955 µM | 1.47 µM | 3.23 µM | – | 2.17 µM | 0.728 µM | – | 4.48 µM | 0.825 µM
10 | C[C@]12C=CC(=O)C=C1CC[C@H]1[C@@H]3C[C@@H](O)[C@](O)(C(=O)CO)[C@@]3(C)C[C@H](O)[C@@]12F | > 100 µM | > 100 µM | > 100 µM | – | > 100 µM | > 100 µM | > 100 µM | > 100 µM | > 100 µM | > 100 µM | – | – | – | – | – | – | – | – | – | –
11 | NC(N)=NCCN=C(N)N | > 100 µM | > 100 µM | > 100 µM | > 100 µM | > 100 µM | > 100 µM | > 100 µM | > 100 µM | > 100 µM | – | – | – | – | – | – | – | – | – | – | –
12 | NC(CCCCP(=O)(O)O)C(=O)O (configuration not stated) | – | > 100 µM | – | > 100 µM | > 100 µM | > 100 µM | > 100 µM | > 100 µM | > 100 µM | – | – | – | – | – | – | – | – | – | – | –
13 | Cc1nc(N)sc1-c1ccnc(Nc2ccc(N3CCOCC3)cc2)n1 | 2.07 µM | > 100 µM | > 65 µM | > 100 µM | – | 2.78 µM | 74.4 µM | > 100 µM | 24.9 µM | – | 0.731 µM | 4.02 µM | – | – | 3.43 µM | – | 0.938 µM | 1.2 µM | 4.22 µM | 1.41 µM
14 | C=CC(Br)(CBr)CCC(Cl)C(C)C (configuration not stated) | 27 µM | 21.8 µM | 3.71 µM | – | 5.03 µM | 3.31 µM | 3.9 µM | 2.98 µM | 3.35 µM | 27.7 µM | – | – | – | – | – | – | – | – | – | –
15 | CC(=O)Oc1cccc2c(/C=N/NC(N)=S)ncc(C)c12 | 29.2 µM | 39.7 µM | 42.7 µM | 9.47 µM | 22 µM | 23.7 µM | 14.4 µM | > 48.4 µM | > 49.7 µM | 12.8 µM | – | – | – | – | – | – | – | – | – | –
16 | COc1ccc(C2CC(c3cccc(Nc4ccncc4)c3)=NN2c2cc(Cl)cc(Cl)c2)cc1 (configuration not stated) | 18 µM | 4.68 µM | – | 3.27 µM | 5.19 µM | – | 3.14 µM | 3.36 µM | 3.26 µM | 30.7 µM | 3.06 µM | 1.89 µM | – | 10.7 µM | 1.72 µM | 2.23 µM | – | 1.73 µM | 1.74 µM | 1.71 µM
17 | O=NN(CCCl)C(=O)NC1CCSc2ccccc21 (configuration not stated) | > 100 µM | 94.1 µM | > 100 µM | > 100 µM | > 100 µM | > 100 µM | > 100 µM | > 94.1 µM | > 100 µM | > 100 µM | – | – | – | – | – | – | – | – | – | –
18 | COc1cc(C[S+]2CCCC2)c(SC)cc1C[S+]1CCCC1 | > 100 µM | > 100 µM | > 100 µM | – | > 100 µM | > 100 µM | > 100 µM | > 100 µM | > 100 µM | > 100 µM | – | – | – | – | – | – | – | – | – | –
19 | CC(=O)OC1CCC2(C)C3CCC4(C)C(c5ccc(=O)oc5)CC5OC54C3CCC2(O)C1 (configuration not stated) | 15.1 µM | 3.64 µM | 3.21 µM | 6.99 µM | 22.4 µM | 1.61 µM | 5.63 µM | 21.7 µM | 4.04 µM | 25.1 µM | – | – | – | – | – | – | – | – | – | –
20 | c1ccc(N=C2SC(=NC3CCCCC3)N(C3CCCCC3)C2=Nc2ccccc2)cc1 | > 100 µM | – | > 100 µM | > 100 µM | > 100 µM | > 100 µM | > 100 µM | > 100 µM | – | > 100 µM | – | – | – | – | – | – | – | – | – | –
21 | O=C(OC(=O)n1ccc2ccccc21)n1ccc2ccccc21 | > 100 µM | > 100 µM | – | > 100 µM | > 100 µM | > 100 µM | > 100 µM | > 100 µM | > 100 µM | > 100 µM | – | – | – | – | – | – | – | – | – | –
